The values that follow come from patent US11554133B2, “Bile acid synthesis promoter, composition for promoting bile acid synthesis and food composition for promoting bile acid synthesis” (KRACIE HOLDINGS, LTD., priority 2017, dated 2023).

Each structure is given as a SMILES string.

The test system of one data set is FXR of the liver. Description: Liver FXR mRNA expression by qPCR. Type of data set: in vivo. To be noted: db/db mice, 0.2% arctigenin diet nine weeks, qPCR vs 18S rRNA, Student's t-test. How it is done:
(§1) Using 5-week-old male db/db mice (BKS.Cg−+Leprdb/+Leprdb/Jcl, purchased from CLEA Japan, Inc.) that were leptin receptor-deficient model, the experiments were started after one-week preliminary rearing. The animals were reared under the environment of 23.0±5° C. of temperature, 50.0±10% of humidity and 12 hours of light-dark cycle. The animal experiments were approved by animal care and use committee of Keio University and carried out based on animal experiment rules of Keio University.
(§2) After preliminary rearing, mice were divided into two groups of (a) control group and (b) arctigenin administrated group (AG group) (each group n=8), and made AG group intake purified diet combined with arctigenin (>98.0%) 0.2% and purified diet (AIN-93G) for control group freely for nine weeks. After administration, 18-hour fasting was performed, and blood specimens were collected from abdominal vena cava under anesthesia, and the liver and the small intestine were sampled.
(§3) After having performed extraction of total RNA from the obtained organs and cDNA synthesis on each group, the expression level of Cyp8b1, SHP, FXR and FGF4R of the liver which are the liver cholesterol metabolism-related genes and small intestinal FGF15 and SHP were compared by qPCR. As control, 18S rRNA was used. […]
For orientation: In qPCR the cycle at which signal appears reflects the starting amount.

The subject of another data set is bile acid in feces. Description: Measurement of the amount of bile acid in feces (UPLC-MS/MS) of db/db mice fed arctigenin diet. The note with it: 0.2% arctigenin in purified diet for nine weeks, pooled feces at end of administration. Type of data set: in vivo. How it is done: as §1, §2
Feces were collected from the rearing cage of each group at the end of the administration period, and the amount of bile acid in feces was measured. 10 mg of dry powder of pooled feces was suspended in 0.2 mL of 90% ethanol and incubated at 65° C. for 1 hour, and the supernatant after centrifugation and the washing of the precipitates were collected together. […]

The test system of another data set is small intestinal SHP. Description: Small intestinal SHP mRNA expression by qPCR. Type of data set: in vivo. To be noted: db/db mice, 0.2% arctigenin diet nine weeks, qPCR vs 18S rRNA. As to the method: as §1, §2, §3
The subject of another data set is Cyp8b1 of the liver. Description: Liver Cyp8b1 mRNA expression by qPCR. Type of data set: in vivo. To be noted: db/db mice, 0.2% arctigenin diet nine weeks, qPCR vs 18S rRNA, Student's t-test. As to the method: as §1, §2, §3
For data set [1] the following is noted: general statement, no test described; cited from earlier work.
The subject of another data set is FGF4R of the liver. Description: Liver FGF4R mRNA expression by qPCR. It counts as in vivo. The note with it: db/db mice, 0.2% arctigenin diet nine weeks, qPCR vs 18S rRNA, Student's t-test. As to the method:
as §1, §2, §3

The next data set deals with SHP of the liver. Description: Liver SHP mRNA expression by qPCR. It counts as in vivo. To be noted: db/db mice, 0.2% arctigenin diet nine weeks, qPCR vs 18S rRNA, Student's t-test. How it is done: as §1, §2, §3
The test system of the next data set is small intestinal FGF15. Description: Small intestinal FGF15 mRNA expression by qPCR. Type of data set: in vivo. The note with it: db/db mice, 0.2% arctigenin diet nine weeks, qPCR vs 18S rRNA. As to the method: as §1, §2, §3
Data set [2] has as its system total cholesterol in the liver. Description: Measurement of total cholesterol in liver of db/db mice fed arctigenin diet. To be noted: 0.2% arctigenin in purified diet for nine weeks, liver lipid extract. Type of data set: in vivo. As to the method: Using 5-week-old male db/db mice (BKS.Cg−+Leprdb/+Leprdb/Jcl, purchased from CLEA Japan, Inc.) that were leptin receptor-deficient model, the experiments were started after one-week preliminary rearing. The animals were reared under the environment of 23.0±5° C. of temperature, 50.0±10% of humidity and 12 hours of light-dark cycle. The animal experiments were approved by animal care and use committee of Keio University and carried out based on animal experiment rules of Keio University. After preliminary rearing, mice were divided into two groups of (a) control group and (b) arctigenin administrated group (AG group) (each group n=8), and made AG group intake purified diet combined with arctigenin (>98.0%) 0.2% and purified diet (AIN-93G) for control group freely for nine weeks. After administration, 18-hour fasting was performed, and blood specimens were collected from abdominal vena cava under anesthesia, and the liver and the small intestine were sampled. Homogenate the liver obtained from each group and extracted total lipid using a lipid extraction kit (Lipid Extraction Kit (Chloroform-Free), Cell Biolabs, Inc.). A total cholesterol level was measured from lipid extract using cholesterol E-test Wako (Wako Pure Chemical Corporation). FIG. 2 is a graph showing the amount of total cholesterol in the liver (mg/dL) in control group and AG group. […]

Regarding `COc1cc(C[C@H]2C(=O)OC[C@@H]2Cc2ccc(OC)c(OC)c2)ccc1O` [arctigenin], in the data set with FXR of the liver, the “relative mRNA expression level of FXR of the liver in comparison with control group” value is recorded as “significantly low”. Besides, the “amount of total bile acid in feces in comparison with control group” value in the data set on bile acid in feces is “large amount”. In the data set with small intestinal SHP, the “relative mRNA expression level of small intestinal SHP in comparison with control group” value is “low”. Further, the “relative mRNA expression level of Cyp8b1 of the liver in comparison with control group” value in the data set on Cyp8b1 of the liver is “significantly high”. In [1], the solubility in water entry is recorded as “water-insoluble”. The “relative mRNA expression level of FGF4R of the liver in comparison with control group” value in the data set with FGF4R of the liver was “significantly low”. Besides, the “relative mRNA expression level of SHP of the liver in comparison with control group” value in the data set on SHP of the liver is listed as “significantly low”. For the same molecule, the “relative mRNA expression level of small intestinal FGF15 in comparison with control group” value in the data set on small intestinal FGF15 is recorded as “low”. For the same molecule, the “amount of total cholesterol in the liver versus control group” value in data set [2] is “little amount”.
